Experiment [1] has as its system RAW264.7 cells. Kind of experiment: mRNA expression in RAW264.7 cells stimulated by LPS and CpG DNA (real-time PCR). Format: cell-based, murine. As to the method:
Cells preparation: Cells suspension was adjusted to 1×10^6/ml in DMEM supplemented with 10% (v/v) NCS; 2 ml of the above suspension was added into 6-well plates and cultured at 37° C. in a 5% CO2 humidified incubator for 2 h; for the purpose of experiment four groups were established: medium group, KB control group, stimulation group and KB treatment group; no reagent was added in medium group; KB control group was added with KB (200 μM); stimulation group was added with LPS (100 ng/ml) and CpG DNA (10 μg/ml); KB treatment group was added with KB (concentrations of 100 and 200 μM) in the meantime of adding LPS and CpG DNA; cells were cultured for 4 h and collected.
RNA extraction: Supernatant was sucked and discarded; 1 ml tripure was added into each well and resuspended with a pipet to make cells completely lysed; the lysate was transferred into 1.5 ml EP tube and incubated at room temperature for 5 min to ensure completed separation of ribonucleoprotein complex; 0.2 ml chloroform was added into EP tube; tube cap was closed and mixed by inversion for 15 sec; EP tube was incubated at room temperature for 10 min until layering of the liquid in tube, then centrifuged at 12000 g at 4_for 15 min; solution was separated into the three-phase; the upper solution (colorless liquid, approximately 0.4 ml) in EP tube was transferred into a new EP tube (DEPC treated); 0.5 ml isopropyl alcohol was added into EP tubes and the liquid was mixed by inversion for several times; EP tube was incubated at room temperature for 10 min to promote RNA precipitating, and centrifuged at 12000 g at 4_for 10 min; the supernatant was discarded; RNA precipitate was added with 1 ml 75% ethanol, vortex washed, and centrifuged at 12000 g at 4 for 10 min; then the supernatant was discarded; EP tube was dried at room temperature for 15 min to remove excessive ethanol; RNA precipitate was diluted with 20 μl ddH2O treated with DEPC, resuspended by pipetting in and out several times, incubated at 55 to 60 for 10 min, and then stored at −70.
Reverse transcription: Reverse-transcription reaction mixture (include: Rnase-free H2O, 10 μl; 5×RT buffer, 4 μl; dNTP mixture, 2 μl; RNase inhibitor, 1 μl; Oligo(dT)20, 1 μl; RNA, 1 μl; ReverTra Ace, 1 μl) was prepared on ice bath, mixed, incubated at 42° C. for 1 h and at 99° C. for 5 min, stored at −20.
PCR amplification: Primers were designed using Primer Premier 5 software by ourselves, and synthesized by Shanghai Sangon Biological Engineering Technology & Services Co., Ltd. The relevant primer sequences are as follows […]
Results were expressed as CT value, and converted into ratio of β-actin, the internal reference items, according to 2^−ΔΔCT methods. […]

Experiment [2] relates to RAW264.7 cells. Description: Western blot of IκB-α and p38 phosphorylation in RAW264.7 cells. Format: cell-based, murine. On the procedure:
Extraction of cytoplasmic protein: RAW264.7 cells were diluted to 1×10^6/ml in DMEM supplemented with 10% (v/v) NCS; 5 ml of the above suspension was transferred into cell culture bottles and cultured at 37° C. in a 5% CO2 humidified incubator for 4 h; a preliminary experiment was first performed, in which RAW264.7 cells were stimulated by LPS (100 ng/ml), CpG DNA (10 μg/ml), TNF-α (50 ng/ml) or IL-1β (50 ng/ml) for 15, 30, 45 and 60 min respectively; for the purpose of formal experiment a medium group, a KB control group, stimulation group (LPS, CpG DNA, TNF-α or IL-1β) and a KB treatment group (LPS+KB group, CpG DNA+KB group, TNF-α+KB group and IL-1β+KB group) were established; no reagent was added in medium group; KB control group was only added with KB (200 μM); stimulation group was added with LPS (100 ng/ml), CpG DNA (10 μg/ml), TNF-α (50 ng/ml) or IL-1β (50 ng/ml); KB treatment group was added with KB (100, 200 μM) in the meantime of adding LPS, CpG DNA, TNF-α or IL-1β; the duration time of cell culture was based on the preliminary experiment (30 min); cells were washed with PBS and centrifuged to collect cells; supernatant was sucked and discarded; the cell pellet was collected for further experiment; each 20 μl cell pellet was added with 200 μl cytoplasm protein extraction reagents supplemented with PMSF, shook vigorously for 5 seconds to completely suspend and disperse the cell pellet, chilled for 10 to 15 min in an ice bath, centrifuged at 12,000 g at 4° C. for 5 min; the supernatant was instantly transferred into a precooled plastic tube, which was the cytoplasmic protein obtained by extraction;
(3) Sample preparation: Protein sample was mixed with 5× concentrated loading buffer in proportion of 4:1, and denatured at 100° C. for 5 min;
(5) Loading: Sample loading volume was adjusted according to protein concentration to ensure 20 μg protein content of each sample; samples were loaded with microsyringe (5 μl protein molecular weight marker were loaded); […]

Experiment [3] concerns murine peritoneal macrophages. Description: mRNA expression of TNF-α and IL-6 in murine peritoneal macrophages stimulated by LPS and CpG DNA. It is filed as cell-based. As to conditions: 100, 200 μM, dose-dependent. The source says:
16.1 Methods: Influence of KB on the mRNA expression of TNF-α and IL-6 in murine peritoneal macrophages stimulated by LPS and CpG DNA was observed. Methods were the same as embodiment 15.

Where [4] appears, read: KB 100 and 200 μM, 30 min, western blot.

For the compound `NCCCN(CCCCNCCCNC(=O)CCc1ccc(O)c(O)c1)C(=O)CCc1ccc(O)c(O)c1` [KB, Kukoamine B], the “mRNA expressions of TNF-α, IL-6, iNOS and COX-2 up-regulated by CpG DNA” value in the experiment on RAW264.7 cells [1] (100, 200 μM, CpG DNA 10 μg/ml, 4 h, dose-dependent) is “significantly inhibit the mRNA expressions”. In addition, the “mRNA expressions of TNF-α, IL-6, iNOS and COX-2 up-regulated by LPS” value in the experiment with RAW264.7 cells [1] (100, 200 μM, LPS 100 ng/ml, 4 h, dose-dependent) is “significantly inhibit the mRNA expressions”. Moreover, in the experiment on RAW264.7 cells [1] (KB 100 and 200 μM, RT-PCR), the “up-regulated expression of TLR4 induced by LPS and CpG DNA” value is listed as “significantly inhibited”; the “up-regulated expression of TLR9 induced by LPS and CpG DNA” value is on record as “significantly inhibited”. Further, the “expression of IκB-α and p-IκB-α, KB alone” value in the experiment on RAW264.7 cells [2] (KB 200 μM alone vs medium group) is recorded as “had no influence”. Moreover, in the experiment with RAW264.7 cells [2] (setting [4]), the “degradation of IκB-α and up-regulated expression of p-IκB-α induced by LPS and CpG DNA” value is reported as “both were significantly inhibited”; the “p-p38 expression induced by LPS and CpG DNA” value is reported as “significantly inhibited”. Further, in experiment [3], the “mRNA expressions of TNF-α and IL-6 up-regulated by CpG DNA” value is reported as “significantly inhibit the mRNA expressions”; the “mRNA expressions of TNF-α and IL-6 up-regulated by LPS” value is recorded as “significantly inhibit the mRNA expressions”.

The values are drawn from patent US10039729B2, “Use of kukoamine A and kukoamine B” (Tianjin Chase Sun Pharmaceutical Co., Ltd., priority 2010, dated 2018).
